Laboratory results from US6168776A (priority 1997, dated 2001).
Entries after “also recorded” stand apart in the source; their conditions may differ.

Experiments:
Aβ(10-43) [1] = target: T1, Aβ(10-43) (Homo sapiens, UniProt P05067); assay: Inhibition of [14C] Chrysamine G binding to Aβ(10-43); conditions: for Ki relative to Chrysamine G / potency/affinity relative to reference compound / binding activity to Aβ: in words; for potency/affinity relative to reference compound: vs Chrysamine G or, for Chrysamine G, vs Congo red; for energy of binding: ΔG=-RT ln Keq, from KD (Chrysamine G) or Ki (aniline derivative)
T1 sequence (P05067 681-714): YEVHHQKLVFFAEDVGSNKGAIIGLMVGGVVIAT

[2] = Staining of AD brain sections (fluorescence microscopy); set-up: species or system human; conditions: in words
Protocol: 26: 241-242 (1973) with 1 mM 1,4-bis(3-carboxy-4-hydroxyphenylethenyl)-benzene substituted for Congo red, but the procedure was otherwise identical. Stained slides were examined using fluorescence microscopy.
(§1) The staining method was that of Stokes and Trickey, J. Clin. Pathol. 26: 241-242 (1973) with 1,4-bis(3-carboxy-4-hydroxyphenylethenyl)-benzene substituted for Congo red.

[3] = Staining of transgenic mouse brain section; conditions: in words
Source text: FIG. 11. […] 26: 241-242 (1973). […] The photomicrograph was obtained using fluorescence microscopy.
as §1

[4] = Tissue levels after i.v. injection of [14C] Chrysamine G in mice (blood-brain barrier); assay type: in vivo, Swiss-Webster mice; conditions: 15 to 35 min after i.v. injection
PC-12 cells = assay: Protection from Aβ(25-35)-induced toxicity in PC-12 cells (MTT reduction); conditions: for protective effects in cells incubated with 1 μM Aβ(25-35): Chrysamine G at 0.1 and 1 μM, FIG. 14; for protective effect against Aβ(25-35)-induced decrease in MTT reduction: in words, FIGS. 12 and 13
[5] = Scatchard analysis of [14C]CG binding to AD brain homogenates
[6] = Correlation of [14C]CG binding with neuritic plaque (NP) and neurofibrillary tangle (NFT) counts; set-up: species or system human
Protocol: FIG. 8B is a graph illustrating the correlation between the amount of [^14 C] […] The filled symbols and heavy lines indicate brains without amyloid angiopathy, the open symbols and dashed lines indicate brains with amyloid angiopathy. The y-axis represents total, absolute [^14 C] […] Approximately 75 μg protein and 150 nM [^14 C] Chrysamine G were used.

[7] = [14C] Chrysamine G binding to Down's syndrome brain homogenates; set-up: species or system human; conditions: two patients, FIG. 9C
Source text: FIGS. 9A, 9B and 9C. […] The data points represent the ratio of [^14 C] […] Horizontal bars represent the mean and error bars represent the standard error for control (circles), and AD brain (diamonds in 9A and 9B). […] Asterisks indicate significant differences compared to control (*p<0.05; **p<0.001). The diamonds in 9C represent a brain from a Down's syndrome patient not yet symptomatic with AD. The triangles in 9C represent a Down's syndrome patient who had developed AD as do the vast majority of Down's syndrome patients by their 40's.

[8] = Total [14C] Chrysamine G binding to control brain homogenates; set-up: species or system human
[9] = Total [14C] Chrysamine G binding to AD brain homogenates; set-up: species or system human
[10] = Metabolism of [14C] Chrysamine G in mouse brain and liver
Aβ(10-43) [11] = target: T1, Aβ(10-43); assay: Scatchard analysis of [14C] Chrysamine G binding to synthetic Aβ(10-43); conditions: read-out: dissociation constant; approximately; whether by Scatchard analysis, kinetic methods, or inhibition of binding
[12] = Scatchard analysis of [14C]CG binding to control brain homogenates
[13] = Octanol/water partitioning; conditions: 1-octanol / phosphate buffered saline pH 7.4
[14] = guinea pigs; Tubis et al.; cited from earlier work
[15] = in words; Tubis et al.; cited from earlier work
Aβ [16] = conditions: cited from earlier work
amylin = conditions: in words; cited from earlier work
Aβ [17] = conditions: in words; cited from earlier work

## O=C(O)c1cc(N=Nc2ccc(-c3ccc(N=Nc4ccc(O)c(C(=O)O)c4)c(I)c3)cc2I)ccc1O [3,3'-I2 CG]
Aβ(10-43) [1]
  Ki relative to Chrysamine G: about half that of Chrysamine G

## O=C(O)c1cc(F)cc(N=Nc2ccc(-c3ccc(N=Nc4cc(F)cc(C(=O)O)c4O)cc3)cc2)c1O [(5-FSA)CG]
Aβ(10-43) [1]
  potency/affinity relative to reference compound: one-third as potent

## O=C(O)c1cc(N=Nc2ccc(-c3ccc(N=Nc4ccc(O)c(C(=O)O)c4)c(Cl)c3)cc2Cl)ccc1O [3,3'-Cl2 CG]
Aβ(10-43) [1]
  Ki relative to Chrysamine G: about half that of Chrysamine G

## O=C(O)c1ccccc1O [salicylic acid]
Aβ(10-43) [1]
  binding activity to Aβ: total lack of binding activity; also recorded: inactivity

## O=C(O)c1cc(N=Nc2ccc(-c3ccc(N=Nc4ccc(O)c(C(=O)O)c4)c(C(=O)O)c3)cc2C(=O)O)ccc1O [3,3'-(COOH)2 CG]
Aβ(10-43) [1]; vs Chrysamine G
  loss of activity from Chrysamine G (fold): 7 fold

## O=C(O)c1cc(N=Nc2ccccc2)ccc1O [aniline derivative]
Aβ(10-43) [1]
  binding activity to Aβ: decrease in affinity
  energy of binding: 5.5 kcal/mol

## O=C(O)c1c(O)ccc(N=Nc2ccc(-c3ccc(N=Nc4ccc(O)c(C(=O)O)c4O)cc3)cc2)c1O [(6-OHSA)CG]
Aβ(10-43) [1]
  potency/affinity relative to reference compound: highest affinity compound in this series

## O=C(O)c1cc(C=Cc2ccc(C=Cc3ccc(O)c(C(=O)O)c3)cc2)ccc1O [1,4-bis(3-carboxy-4-hydroxyphenylethenyl)-benzene]
[2]; human AD brain
  staining relative to Chrysamine G, Congo red, or Thioflavin S: much more intense than that observed with Chrysamine G, Congo red, or Thioflavin S
[2]
  staining of human AD brain: Numerous amyloid plaques and neuropil threads can be readily identified as well as a neurofibrillary tangle; also recorded: Visible are a large number of neuritic plaques, a neurofibrillary tangle and frequent neuropil threads
[3]
  staining of plaque in transgenic mouse brain: intensely stained plaque

## O=C(O)c1cc(N=Nc2ccc(-c3ccc(N=Nc4ccc(O)c(C(=O)O)c4)cc3)cc2)ccc1O [Chrysamine G, 4,4'-bis(3-carboxy-4-hydroxyphenylazo)-biphenyl]
[4]
  radioactivity in brain over time: stayed nearly constant
Aβ(10-43) [1]
  energy of binding: roughly 38 KJ/mole
PC-12 cells; Aβ(25-35)
  concentration range showing protective effects: 0.1 to 1.0 µM
PC-12 cells
  protective effects in cells incubated with 1 μM Aβ(25-35): protective effects at 0.1 and 1 μM
  protective effect against Aβ(25-35)-induced decrease in MTT reduction: dose-dependent, protective effect; also recorded: protective effect which is dependent on both the concentration of Aβ(25-35) (FIG. 12) as well as the concentration of Chrysamine G; also recorded: prevents Aβ-induced cytotoxicity
PC-12 cells; vs control, FIG. 13
  effect on MTT reduction in the absence of Aβ(25-35): no significant difference
[5]; AD, n = 5
  Bmax (Table 1): 0.784 ± .061 pmol/μg prot
[5]; not significant (p=0.09)
  Bmax in AD brain higher than control: 36%
[5]; not significant (p=0.29)
  KD in AD brain lower than control: 16%
[5]; typical AD brain sample, 48 NP/×200, FIG. 4B
  Bmax: 790 fmol/μg protein
[6]; AD brains alone, p=0.007
  correlation of binding with NPs (r): 0.59
[6]; AD brains alone, p=0.026
  correlation of binding with NFTs (r): 0.50
[6]; brains with cerebrovascular amyloid deposits, p=0.15
  correlation of binding with NP counts (r): 0.49
[6]; brains without amyloid angiopathy, p=0.01
  correlation of binding with NP counts (r): 0.79
[6]; controls included, p=0.001
  correlation of binding with NFTs (r): 0.60
  correlation of binding with NPs (r): 0.69
[7]
  binding in Down's syndrome brain vs control: above the control range
[8]; Cerebellum, Control (n = 8)
  total binding: 75 ± 13 fmol/μg protein
[8]; Frontal Pole, Control (n = 6)
  total binding: 58 ± 8 fmol/μg protein
[8]; Head of Caudate, Control (n = 4)
  total binding: 73 ± 11 fmol/μg protein
[8]; Inferior Parietal, Control (n = 8)
  total binding: 76 ± 13 fmol/μg protein
[8]; Occipital, Control (n = 8)
  total binding: 64 ± 16 fmol/μg protein
[8]; Superior Temporal, Control (n = 8)
  total binding: 66 ± 17 fmol/μg protein
[8]; Superior/Middle Frontal, Control (n = 8)
  total binding: 54 ± 10 fmol/μg protein
[9]; AD brain homogenates
  saturable (specific) binding, share of total binding: 60-80%
[9]; Cerebellum, AD (n = 11)
  total binding: 73 ± 9 fmol/μg protein
[9]; Frontal Pole, AD (n = 10), p < 0.006
  total binding: 124 ± 16 fmol/μg protein
[9]; Head of Caudate, AD (n = 7), p = 0.14
  total binding: 123 ± 22 fmol/μg protein
[9]; Inferior Parietal, AD (n = 11), p < 0.03
  total binding: 137 ± 19 fmol/μg protein
[9]; Occipital, AD (n = 11), p = 0.1
  total binding: 95 ± 12 fmol/μg protein
[9]; Superior Temporal, AD (n = 11), p < 0.02
  total binding: 121 ± 14 fmol/μg protein
[9]; Superior/Middle Frontal, AD (n = 11), p < 0.005
  total binding: 130 ± 21 fmol/μg protein
[9]; in words
  saturable and total binding vs control: greater in AD brain than in control
[10]; 60 min, in words
  radioactivity that is unchanged Chrysamine G: essentially all
[10]; mouse, iv, 0.05 uCi/g
  remaining at 1 h: > 95%
Aβ(10-43) [11]
  Kd: 250 to 400 nM
[12]; Control, n = 6
  Bmax (Table 1): 0.576 ± .092 pmol/μg prot
[12]; typical control brain sample, FIG. 4B
  Bmax: 614 fmol/μg protein

## Oc1ccc(N=Nc2ccc(-c3ccc(N=Nc4ccc(O)cc4)cc3)cc2)cc1 [phenol derivative]
Aβ(10-43) [1]
  binding activity to Aβ: completely destroyed binding affinity; also recorded: does not bind to synthetic Aβ
PC-12 cells
  protective effects in cells incubated with 1 μM Aβ(25-35): no protective effects, and perhaps enhanced the toxicity of Aβ
  protective effect against Aβ(25-35)-induced decrease in MTT reduction: does not prevent Aβ-induced cytotoxicity

## O=C(O)c1cc(N=Nc2ccc(-c3ccc(N=Nc4ccc(O)c(C(=O)O)c4)c(I)c3)cc2)ccc1O [3-ICG]
Aβ(10-43) [1]
  potency/affinity relative to reference compound: slightly more potent than Chrysamine G

## O=C(O)c1cc(N=Nc2ccc(-c3ccc(N=Nc4ccc(O)c(C(=O)O)c4)c(Br)c3)cc2Br)ccc1O [3,3'-Br2 CG]
Aβ(10-43) [1]
  Ki relative to Chrysamine G: about half that of Chrysamine G

## O=C(O)c1cc(N=Nc2ccc(-c3ccc(N=Nc4ccc(O)c(C(=O)O)c4)cc3S(=O)(=O)O)c(S(=O)(=O)O)c2)ccc1O [2,2'-(SO3)2 CG]
Aβ(10-43) [1]
  binding activity to Aβ: inactivity

## Nc1c(/N=N/c2ccc(-c3ccc(/N=N/c4cc(S(=O)(=O)O)c5ccccc5c4N)cc3)cc2)cc(S(=O)(=O)O)c2ccccc12 [Congo red]
[13]
  octanol/water partition coefficient: 0.665±0.037
[14]
  brain/kidney ratio: approximately 0.07
[15]
  crossing of the blood-brain barrier: does not cross the blood-brain barrier well
Aβ [16]; in vitro, in words
  effect on Aβ-induced neurotoxicity and cell degeneration: inhibits fibrillar Aβ neurotoxicity; also recorded: inhibits Aβ-induced neurotoxicity and cell degeneration in vitro
Aβ [16]; literature
  concentration for complete protection from Aβ-induced toxicity: ≤ 20 µM
  concentration over which Aβ-induced toxicity is protected against: over 2 μM
amylin
  effect on amylin toxicity to pancreatic islet cells: inhibit pancreatic islet cell toxicity of diabetes-associated amylin; also recorded: protect pancreatic islet cells from the toxicity caused by amylin
Aβ [17]
  effect on aggregation of Aβ: does inhibit aggregation of Aβ
